Source: patent US7511034B2, “Dialkylhydroxybenzoic acid derivatives containing metal chelating groups and their therapeutic uses” (Samsung Electronics Co., Ltd., priority 2001, dated 2009)

Legend:
[1] = test system: multilayer liposome (soybean phosphatidylcholine); assay: Inhibition of lipid peroxidation (liposome oxidation, TBA absorbance at 532 nm); type: biochemical; settings: liposome oxidation initiated by FeCl2, 37° C., 15 minutes; read-out: Inhibitor Concentration (IC50)
Protocol: The compounds of the present invention were tested for antioxidizing effect in terms of the repression of the radical chain reaction of a multilayer liposome.
The liposome was prepared as followings: 30 mg of commercially available soybean phosphatidylcholine (PC, Sigma Chemical Co., U.S.A.) was dissolved in 1 mL of ethanol, and 200 μL of the ethanol/PC solution was added to 10 mL of 10 mM Tris buffer including 50 mM NaCl (pH 7.0) with stirring.
The ability of a compound to inhibit oxidation of the liposome was evaluated as followings: To 400 μL of the liposomes were added the test compound (in buffer or ethanol) and histidine-FeCl3 (167:33 μM final). Oxidation was initiated by the addition of FeCl2 (33 μM final prepared in nitrogen purged water). The mixtures was shaken at 37° C. for 15 minutes. Thereafter, tubes were treated with 1 mL of 0.67% thiobabituric acid (TBA):10% trichloroacetic acid (2:1, v/v) in 0.25 N HCl solution, containing 1.5% (v/v) t-butylhydroxytoluene (BHT) to terminate oxidation. The aliquots were heated to 100° C. for 20 minutes. After ice cooling, 1 mL of chloroform was added to 1 mL supernatant from tubes and tubes were centrifuged. The absorbances of the resulting supernatant were measured at 532 nm (see: Table below).

[2] = test system: ischemic neuronal degeneration; assay: Protection of cell damage by ischemia (in vivo), hippocampus Cresyl violet staining; design: species or system Mongolian gerbils (Meriones unguiculatus); settings: gerbils, 60 mg/kg P.O., 4 days reperfusion; for protective effect: 5 min carotid occlusion, pre-treated groups
Protocol: Male Mongolian gerbils (Meriones unguiculatus) weighing 80-88 g were used in the present study. Each animal was medicated P.O. with vehicle, Ebselen or various test compounds (60 mg/kg in 10% DMSO), after 30 minutes ischemic injury, respectively. 20 animals were allotted into every group. The animals were placed under general anesthesia with a mixture of 2.5% isoflurane in 33% oxygen and 67% nitrous oxide. A midline ventral incision was made in the neck. Both common carotid arteries were isolated, freed of nerve fibers, and occluded using nontraumatic aneurysm clips. Complete interruption of blood flow was confirmed by observing the central artery in eyeballs using ophthalmoscope. After five minutes of occlusion, the aneurysm clips were removed from both common carotid arteries. Restoration of blood flow (reperfusion) was observed directly under the microscope. Sham-operated controls were subjected to the same surgical procedures except that common carotid arteries were not occluded. Body temperature was monitored and maintained at 37° C.±0.5° C. during surgery and during the immediate postoperative period until the animals recovered fully from anesthesia. At the designated reperfusion time (4 days), operated animals and sham animals were killed.
Animals were perfused transcardially with phosphate-buffered saline (PBS, pH 7.4) followed by 4% paraformaldehyde in 0.1 M phosphate buffer (pH 7.4) at 4 days (n=7) after surgery. The brains were removed, and postfixed in the same fixative for 4 hours. The brain tissues were cryoprotected by infiltration with 30% sucrose overnight. Cornoy fixed specimens were cut into 30 μm sections on a cryostat. The sections were sequentially stained by Cresyl violet dye.
Images of staining in the hippocampus of each animal were captured with an Applescanner. […] All data obtained from the quantitative data were analyzed using one-way ANOVA to determine statistical significance. Bonferroni's test was used for post-hoc comparisons. P values below 0.05 or 0.01 were considered statistically significant.

rats = settings: oral administration; cited from earlier work
mice = settings: oral administration; cited from earlier work
[3] = even in the presence of an excess of glutathione (GSH); cited from earlier work
[4] = Acute toxicity LD50 in rats; settings: rat, in vivo

Row | Structure (SMILES) | IC50 [1] | also measured
1 | Cc1cc(C(=O)NCc2ccccn2)cc(C)c1O [Example 7, 4-Hydroxy-3,5-dimethyl-N-pyridine-2-yl methyl benzamide] | 300 µM | 
2 | O=c1c2ccccc2[se]n1-c1ccccc1 [Ebselen] |  | protective effect [2]: 69%; LD50 (rats): ≥ 6,810 mg/kg; LD50 (mice): ≥ 6,810 mg/kg; solubility in water [3]: very little soluble in water
3 | CC(C)(C)c1cc(C(=O)Nc2ccccn2)cc(C(C)(C)C)c1O [Example 1, 3,5-Di-tert-butyl-4-hydroxy-N-pyridin-2-yl-benzamide] | 11.9 µM | 
4 | CC(C)(C)c1cc(C(=O)NCc2ccccn2)cc(C(C)(C)C)c1O [Example 2, 3,5-Di-tert-butyl-4-hydroxy-N-pyridin-2-yl methyl benzamide] | 12.7 µM | 
5 | Cc1c(C)c2c(c(C)c1O)CCC(C)(C(=O)O)O2 (stereo not shown) [Trolox, reference compound] | 10.2 µM | 
6 | Cc1cc(C(=O)Nc2ccccn2)cc(C)c1O [Example 6, 4-Hydroxy-3,5-dimethyl-N-pyridin-2-yl-benzamide] | 122 µM | 
7 | CC(C)(C)c1cc(C(=O)Nc2nccs2)cc(C(C)(C)C)c1O [Example 4, 3,5-Di-tert-butyl-4-hydroxy-N-thiazol-2-yl benzamide] | 9.69 µM | protective effect [2]: 91%; neuroprotective effects against ischemic neuronal degeneration compared with Ebselen [2]: more neuroprotective effects against ischemic neuronal degeneration than those of Ebselen; LD50 ([4]; ip, intraperitoneal administration in rats): ≥ 800 mg/kg; LD50 ([4]; oral administration in rats): ≥ 6950 mg/kg
8 | CC(C)(C)c1cc(C(=O)Nc2ccc(O)c3ncccc23)cc(C(C)(C)C)c1O [Example 3, 3,5-Di-tert-butyl-4-hydroxy-N-(8-hydroxyyquinolin-5-yl) benzamide] | 7.79 µM | 
9 | CCOC(=O)c1csc(NC(=O)c2cc(C(C)(C)C)c(O)c(C(C)(C)C)c2)n1 [Example 5, 2-(3,5-Di-tert-butyl-4-hydroxy-benzoylamino)-thiazole-4-carboxylic acid ethyl ester] | 11.1 µM | 
